Common to all, as to format: cell-based
Assay [1] has as its target T1, human somatostatin receptor subtype 2 (Homo sapiens, UniProt P30874).
T1 construct: expressed in transfected cells
The assay can be described thus: Functional assay for SSTR2 agonists (HTRF cAMP). To be noted: CHO-K1 cells stably expressing human SST2; NKH477-stimulated cAMP; 20 min at 37 C; read-out: hSST2 cAMP Avg EC50. Put shortly: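 CHO-K1 cells stably expressing human SSTR2 treated with compound (typically 0-10,000 nM final) for 20 min at 37 °C. Lysate cAMP measured by HTRF (665/620 nm ratio), converted via standard curve; EC50 from cAMP vs concentration.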

Another assay concerns the target T2, SST2 (Homo sapiens, UniProt P30874).
T2 construct: host or cells: PathHunter CHO-K1 SST2 cells
The assay can be described thus: PathHunter CHO-K1 SST2 Internalization Assay. As to conditions: PathHunter CHO-K1 SST2 cells; 90 min at 37 C; luminescence; read-out: Internalization EC50. The method, boiled down:
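CHO-K1 cells expressing human SST2, 2500 cells/well, grown 48 h, then exposed 90 min at 37 C to 11-point 1:3 NDC dilutions (final top 10 uM). Beta-Glo luminescence after 60 min at room temperature; four-parameter IC50, duplicate mean, background-corrected.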

In assay [2] the test system is NCI-H524 human small cell lung cancer cells. Put plainly: H524 assay: inhibition of cell proliferation (CellTiter Glo). To be noted: 2 h treatment, washout, additional 70 h incubation. The method, boiled down:
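NCI-H524 cells were exposed for 2 h to NDC in an 11-point two-fold series starting at 1 uM. The drug was then washed out and cells grew a further 70 h. CellTiter Glo luminescence gave % inhibition versus untreated control, and IC50 came from a four-parameter nonlinear regression.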

Each structure is given as a SMILES string.

From patent publication US20260007758A1, “SO[…]-2 RECEPTOR (SST2R) NON-PEPTIDE DRUG CONJUGATES AND USES THEREOF” (Crinetics Pharmaceuticals, Inc., priority 2024, published 2026) come the findings set out here.

T1 sequence (P30874 whole entry): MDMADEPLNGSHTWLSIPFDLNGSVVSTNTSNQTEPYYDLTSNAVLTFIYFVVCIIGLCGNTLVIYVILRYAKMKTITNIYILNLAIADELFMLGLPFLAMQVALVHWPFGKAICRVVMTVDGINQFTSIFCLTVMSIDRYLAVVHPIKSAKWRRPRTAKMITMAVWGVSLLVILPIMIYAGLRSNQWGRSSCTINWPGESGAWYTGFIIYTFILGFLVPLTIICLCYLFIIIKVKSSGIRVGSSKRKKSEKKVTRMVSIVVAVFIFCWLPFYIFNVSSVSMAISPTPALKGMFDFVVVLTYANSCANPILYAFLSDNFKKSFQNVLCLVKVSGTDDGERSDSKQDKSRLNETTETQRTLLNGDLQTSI
T2 sequence (P30874 whole entry): as above

As to `CC[C@H](C)[C@@H]([C@@H](CC(=O)N1CCC[C@H]1[C@H](OC)[C@@H](C)C(=O)N[C@H](C)[C@@H](O)c1ccccc1)OC)N(C)C(=O)[C@@H](NC(=O)[C@H](C(C)C)N(C)C(=O)OCc1ccc(NC(=O)[C@H](CCCNC(N)=O)NC(=O)[C@@H](NC(=O)CCOCCC(=O)NCCNc2ncc(-c3cc(C)cc(F)c3)c(N3CCC(N)CC3)c2-c2nc3ccc(Cl)cc3[nH]2)C(C)C)c(O[C@@H]2O[C@H](C(=O)NCCS(=O)(=O)O)[C@@H](O)[C@H](O)[C@H]2O)c1)C(C)C` [Compound 208], the values for the 50% effective concentration (EC50) (in assay [1]; at SST2; in assay [2]) were 0.062 nM, 3.1 nM and 8.9 nM, respectively.

On to `CC[C@H](C)[C@@H]([C@@H](CC(=O)N1CCC[C@H]1[C@H](OC)[C@@H](C)C(=O)N[C@H](C)[C@@H](O)c1ccccc1)OC)N(C)C(=O)[C@@H](NC(=O)[C@H](C(C)C)N(C)C(=O)OCc1ccc(NC(=O)[C@H](CCCNC(N)=O)NC(=O)[C@@H](NC(=O)c2cc(NCCOCCC(=O)NCCNc3ncc(-c4cc(C)cc(F)c4)c(N4CCC(N)CC4)c3-c3nc4ccc(Cl)cc4[nH]3)cc(C(=O)NC[C@@H](N)C(=O)O)c2)C(C)C)cc1)C(C)C` [Compound 147], for which the concentration giving a half-maximal response (EC50) came out at 0.56 nM in assay [1], 23 nM at SST2 and 35 nM in assay [2].

In the case of `CC[C@H](C)[C@@H]([C@@H](CC(=O)N1CCC[C@H]1[C@H](OC)[C@@H](C)C(=O)N[C@H](C)[C@@H](O)c1ccccc1)OC)N(C)C(=O)[C@@H](NC(=O)[C@H](C(C)C)N(C)C(=O)OCc1ccc(NC(=O)[C@H](CCCNC(N)=O)NC(=O)[C@@H](NC(=O)CCOCCC(=O)NCCNc2ncc(-c3cc(C)cc(F)c3)c(N3CCC(N)CC3)c2-c2nc3ccc(Cl)cc3[nH]2)C(C)C)c(O[C@@H]2O[C@H](C(=O)NCCC(=O)O)[C@@H](O)[C@H](O)[C@H]2O)c1)C(C)C` [Compound 49], the concentration giving a half-maximal response (EC50) in assay [1] worked out at 0.14 nM; on SST2 it was 3.4 nM; in assay [2], 9.4 nM.

With `CC[C@H](C)[C@@H]([C@@H](CC(=O)N1CCC[C@H]1[C@H](OC)[C@@H](C)C(=O)N[C@H](C)[C@@H](O)c1ccccc1)OC)N(C)C(=O)[C@@H](NC(=O)[C@H](C(C)C)N(C)C(=O)OCc1ccc(NC(=O)[C@H](CCCNC(N)=O)NC(=O)[C@@H](NC(=O)CCCCC(=O)NCCNc2ncc(-c3cc(C)cc(F)c3)c(N3CCC(N)CC3)c2-c2nc3ccc(Cl)cc3[nH]2)C(C)C)cc1C(=O)NCC(=O)O)C(C)C` [Compound 72], the values for the EC50 (in assay [1]; at SST2; in assay [2]) were 0.11 nM, 4.7 nM and 40 nM, respectively.

For the compound `CC[C@H](C)[C@@H]([C@@H](CC(=O)N1CCC[C@H]1[C@H](OC)[C@@H](C)C(=O)N[C@H](C)[C@@H](O)c1ccccc1)OC)N(C)C(=O)[C@@H](NC(=O)[C@H](C(C)C)N(C)C(=O)OCc1ccc(NC(=O)[C@H](CCCNC(N)=O)NC(=O)[C@@H](NC(=O)[C@H](CCC(=O)O)NC(=O)CCOCCC(=O)NCCNc2ncc(-c3cc(C)cc(F)c3)c(N3CC[C@H]4NCCC[C@@H]4C3)c2-c2nc3ccc(Cl)cc3[nH]2)C(C)C)cc1C(=O)NCCN)C(C)C` [Compound 80], the EC50 amounted to 180 nM in assay [1], 920 nM on SST2 and 540 nM in assay [2].

As to `CC[C@H](C)[C@@H]([C@@H](CC(=O)N1CCC[C@H]1[C@H](OC)[C@@H](C)C(=O)N[C@H](C)[C@@H](O)c1ccccc1)OC)N(C)C(=O)[C@@H](NC(=O)[C@H](C(C)C)N(C)C(=O)OCc1ccc(NC(=O)[C@H](CCCNC(N)=O)NC(=O)[C@@H](NC(=O)CCOCCC(=O)NCCNc2ncc(-c3cc(C)cc(F)c3)c(N3CCC(N)CC3)c2-c2nc3ccc(Cl)cc3[nH]2)C(C)C)cc1C(=O)N[C@@H](CCCCNC(=O)CCCCc1ccc(I)cc1)C(=O)O)C(C)C` [Compound 246], the half-maximal effective concentration (EC50) in assay [1] amounted to 0.1 nM; on SST2 it was 1.5 nM; in assay [2], 74 nM.

Turning to `CC[C@H](C)[C@@H]([C@@H](CC(=O)N1CCC[C@H]1[C@H](OC)[C@@H](C)C(=O)N[C@H](C)[C@@H](O)c1ccccc1)OC)N(C)C(=O)[C@@H](NC(=O)[C@H](C(C)C)N(C)C(=O)OCc1ccc(NC(=O)[C@H](CCCNC(N)=O)NC(=O)[C@@H](NC(=O)c2cc(NCCOCCOCCOCCC(=O)NCCNc3ncc(-c4cc(C)cc(F)c4)c(N4CCC(N)CC4)c3-c3nc4ccc(Cl)cc4[nH]3)cc(C(=O)NCCN)c2)C(C)C)cc1)C(C)C` [Compound 179], the concentration giving a half-maximal response (EC50) came out at 0.54 nM in assay [1], 9.8 nM on SST2 and 370 nM in assay [2].

For `CC[C@H](C)[C@@H]([C@@H](CC(=O)N1CCC[C@H]1[C@H](OC)[C@@H](C)C(=O)N[C@H](C)[C@@H](O)c1ccccc1)OC)N(C)C(=O)[C@@H](NC(=O)[C@H](C(C)C)N(C)C(=O)OCc1ccc(NC(=O)[C@H](CCCNC(N)=O)NC(=O)[C@@H](NC(=O)CCOCCOCCOCCOCCNc2ncc(C(=O)NCCNc3ncc(-c4cc(C)cc(F)c4)c(N4CCC(N)CC4)c3-c3nc4ccc(Cl)cc4[nH]3)cn2)C(C)C)cc1)C(C)C` [Compound 180], the results for the concentration giving a half-maximal response (EC50) (in assay [1]; on SST2; in assay [2]) were 0.52 nM, 16 nM and 680 nM, respectively.

On to `CC[C@H](C)[C@@H]([C@@H](CC(=O)N1CCC[C@H]1[C@H](OC)[C@@H](C)C(=O)N[C@H](C)[C@@H](O)c1ccccc1)OC)N(C)C(=O)[C@@H](NC(=O)[C@H](C(C)C)N(C)C(=O)OCc1ccc(NC(=O)[C@H](CCCNC(N)=O)NC(=O)[C@@H](NC(=O)[C@H](NC(=O)CCOCCC(=O)NCCNc2ncc(-c3cc(C)cc(F)c3)c(N3CCC(N)CC3)c2-c2nc3ccc(Cl)cc3[nH]2)c2cnn(C)c2)C(C)C)c(OCC(=O)O)c1)C(C)C` [Compound 204], for which the EC50 in assay [1] was 0.14 nM; on SST2 it was 9.2 nM; in assay [2], 30 nM.

Consider `CC[C@H](C)[C@@H]([C@@H](CC(=O)N1CCC[C@H]1[C@H](OC)[C@@H](C)C(=O)N[C@H](C)[C@@H](O)c1ccccc1)OC)N(C)C(=O)[C@@H](NC(=O)[C@H](C(C)C)N(C)C(=O)OCc1ccc(NC(=O)[C@H](C)NC(=O)[C@@H](NC(=O)CCOCCn2cc(CCC(=O)NCCNc3ncc(-c4cc(C)cc(F)c4)c(N4CCC(N)CC4)c3-c3nc4ccc(Cl)cc4[nH]3)nn2)C(C)C)c(O[C@@H]2O[C@H](C(=O)O)[C@@H](O)[C@H](O)[C@H]2O)c1)C(C)C` [Compound 141], for which the figures for the EC50 (in assay [1]; on SST2; in assay [2]) were 0.1 nM, 8.8 nM and 20 nM, respectively.

As to `CC[C@H](C)[C@@H]([C@@H](CC(=O)N1CCC[C@H]1[C@H](OC)[C@@H](C)C(=O)N[C@H](C)[C@@H](O)c1ccccc1)OC)N(C)C(=O)[C@@H](NC(=O)[C@H](C(C)C)N(C)C(=O)OCc1ccc(NC(=O)[C@H](CCCNC(N)=O)NC(=O)[C@@H](NC(=O)[C@@H](CCC(=O)O)NC(=O)CCOCCC(=O)NCCNc2ncc(-c3cc(C)cc(F)c3)c(N3CCC(N)CC3)c2-c2nc3ccc(Cl)cc3[nH]2)C(C)C)cc1C(=O)NCCN)C(C)C` [Compound 25], the 50% effective concentration (EC50) in assay [1] was 0.29 nM; on SST2, 6.5 nM; in assay [2], 41 nM.

Turning to `CC[C@H](C)[C@@H]([C@@H](CC(=O)N1CCC[C@H]1[C@H](OC)[C@@H](C)C(=O)N[C@H](C)[C@@H](O)c1ccccc1)OC)N(C)C(=O)[C@@H](NC(=O)[C@H](C(C)C)N(C)C(=O)OCc1ccc(NC(=O)[C@H](C)NC(=O)[C@@H](NC(=O)CCOCCN2CCC(C(=O)NCCNc3ncc(-c4cc(C)cc(F)c4)c(N4CCC(N)CC4)c3-c3nc4ccc(Cl)cc4[nH]3)CC2)C(C)C)c(O[C@@H]2O[C@H](C(=O)O)[C@@H](O)[C@H](O)[C@H]2O)c1)C(C)C` [Compound 93], the results for the half-maximal effective concentration (EC50) (in assay [1]; on SST2; in assay [2]) were 0.28 nM, 33 nM and 120 nM, respectively.

`CC[C@H](C)[C@@H]([C@@H](CC(=O)N1CCC[C@H]1[C@H](OC)[C@@H](C)C(=O)N[C@H](C)[C@@H](O)c1ccccc1)OC)N(C)C(=O)[C@@H](NC(=O)[C@H](C(C)C)N(C)C(=O)OCc1ccc(NC(=O)[C@H](CCCNC(N)=O)NC(=O)[C@@H](NC(=O)c2ccc(NC(=O)CCOCCC(=O)NCCNc3ncc(-c4cc(C)cc(F)c4)c(N4CCC(N)CC4)c3-c3nc4ccc(Cl)cc4[nH]3)cc2O[C@@H]2OC(C(=O)O)[C@@H](O)[C@H](O)[C@H]2O)C(C)C)cc1)C(C)C` (stereo partly drawn) [Compound 182]: the results for the EC50 (in assay [1]; on SST2; in assay [2]) were 0.093 nM, 11 nM and 2300 nM, respectively.

`CC[C@H](C)[C@@H]([C@@H](CC(=O)N1CCC[C@H]1[C@H](OC)[C@@H](C)C(=O)N[C@H](C)[C@@H](O)c1ccccc1)OC)N(C)C(=O)[C@@H](NC(=O)[C@H](C(C)C)N(C)C(=O)OCc1ccc(NC(=O)C(CCCNC(N)=O)NC(=O)[C@@H](NC(=O)c2cc(NC(=O)CCOCCC(=O)N(C)CC(=O)NCCNc3ncc(-c4cc(C)cc(F)c4)c(N4CCC(N)CC4)c3-c3nc4ccc(Cl)cc4[nH]3)cc(C(=O)NCC(=O)NCCN)c2)C(C)C)cc1)C(C)C` (stereo partly drawn) [Compound 175]: the EC50 was 0.41 nM in assay [1], 18 nM on SST2 and 56 nM in assay [2].

In the case of `CC[C@H](C)[C@@H]([C@@H](CC(=O)N1CCC[C@H]1[C@H](OC)[C@@H](C)C(=O)N[C@H](C)[C@@H](O)c1ccccc1)OC)N(C)C(=O)[C@@H](NC(=O)[C@H](C(C)C)N(C)C(=O)OCc1ccc(NC(=O)[C@H](CCCNC(N)=O)NC(=O)[C@@H](NC(=O)c2cc(NCCC(=O)NCCNc3ncc(-c4cc(C)cc(F)c4)c(N4CCC(N)CC4)c3-c3nc4ccc(Cl)cc4[nH]3)cc(C(=O)NCC(=O)O)c2)C(C)C)cc1)C(C)C` [Compound 157], the EC50 in assay [1] is 0.45 nM; at SST2, 20 nM; in assay [2], 95 nM.
